From patent US20260250318A1, “COMPOSITIONS AND METHODS FOR CROSSING THE BLOOD BRAIN BARRIER” (VOYAGER THERAPEUTICS, INC., priority 2022, published 2026)

What was measured:
Details in all cases: synthetic library passage 3, intravenous, relative to wild-type AAV9
brain [1] = test: NGS fold enrichment of synthetic library (passage 3) in C57Bl/6 mice, first cross-species screen; type: in vivo
How it was run: (§1)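 Fold enrichment versus wild-type AAV9 was derived by NGS of RT-PCR-amplified RNA from nervous tissue, collected e.g. 28 days after IV dosing […]. The library (passage 3) was given to two NHPs aged 2-4 years and to 6-8-week BALB/c and C57Bl/6 mice (n=3 each).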

[2] = system: brain, spinal cord, and DRG of the NHPs; test: NGS fold enrichment of synthetic library (passage 3) in NHPs, first cross-species screen; type: in vivo, cynomolgus macaques (Macaca fascicularis)
How it was run: as §1

brain [3] = test: NGS fold enrichment of synthetic library (passage 3) in BALB/c mice, first cross-species screen; type: in vivo
How it was run: as §1

[4] = RNA from brain of C57Bl/6 mice, NGS
[5] = RNA from spinal cord of NHPs, NGS
[6] = RNA from brain of BALB/c mice, NGS

Row | Sequence | Fold enrichment over AAV9 in the brain of Mice (C57Bl/6) (brain [1]; [4]) [fold] | Fold enrichment over AAV9 in the brain of NHPs ([2]; RNA from brain of NHPs, NGS) [fold] | Fold enrichment over AAV9 in the spinal cord of NHPs [2, 5] [fold] | Fold enrichment over AAV9 in the brain of Mice (BALB/c) (brain [3]; [6]) [fold] | Fold enrichment over AAV9 in the brain of Mice (C57Bl/6) (brain [1]; RNA NGS, brain of C57Bl/6 mice) [fold] | Fold enrichment over AAV9 in the brain of NHPs ([2]; RNA NGS, brain of NHPs) [fold] | Fold enrichment over AAV9 in the spinal cord of NHPs ([2]; RNA NGS, spinal cord of NHPs) [fold] | Fold enrichment over AAV9 in the brain of Mice (BALB/c) (brain [3]; RNA NGS, brain of BALB/c mice) [fold]
1 | GSGQNQKGMQPNQT | 0.775 | 1.326 | 3.139 | 1.059 |  |  |  | 
2 | GSGQNQKILTLDQT |  |  |  |  | 0.291 | 1.080 | 0.371 | 0.314
3 | GSGQNQQALGSQRT |  |  |  |  | 1.419 | 1.695 | 1.934 | 0.562
4 | GSGQNQQALHNPHT |  |  |  |  | 0.638 | 1.553 | 0.664 | 0.213
5 | GSGQNQQAPHKKET | 0.994 | 1.180 | 0.598 | 0.689 |  |  |  | 
6 | GSGQNQQARPLELT |  |  |  |  | 0.389 | 1.061 | 0.059 | 0.252
7 | GSGQNQQASGRQQT |  |  |  |  | 0.943 | 1.458 | 3.179 | 0.991
8 | GSGQNQQASLAMRT |  |  |  |  | 2.066 | 1.910 | 3.577 | 1.638
9 | GSGQNQQASLPSRT |  |  |  |  | 0.930 | 1.456 | 0.389 | 0.673
10 | GSGQNQQGTGVSHT | 1.417 | 1.371 | 4.295 | 0.749 |  |  |  | 
11 | GSGQNQQGTLLHQT |  |  |  |  | 1.347 | 1.728 | 2.065 | 1.303
12 | GSGQNQQHANLNQT |  |  |  |  | 0.416 | 1.410 | 0.094 | 0.544
13 | GSGQNQQHASSNNT | 0.789 | 1.166 | 7.155 | 0.896 |  |  |  | 
14 | GSGQNQQHHSSHTT | 0.957 | 1.328 | 2.158 | 0.452 |  |  |  | 
15 | GSGQNQQHPSTQQT | 1.017 | 1.205 | 1.552 | 0.680 |  |  |  | 
16 | GSGQNQQHSLSSQT | 0.700 | 1.150 | 3.844 | 0.730 |  |  |  | 
17 | GSGQNQQHSSKATT | 1.350 | 1.345 | 12.248 | 1.401 |  |  |  | 
18 | GSGQNQQHSSSHLT |  |  |  |  | 1.091 | 1.581 | 2.782 | 0.859
19 | GSGQNQQHVSSPRT |  |  |  |  | 1.847 | 2.176 | 1.279 | 0.938
20 | GSGQNQQHYGSQGT | 1.345 | 1.189 | 0.453 | 0.379 |  |  |  | 

Row | Sequence | Fold enrichment over AAV9 in the brain of Mice (C57Bl/6) (brain [1]; [4]) [fold] | Fold enrichment over AAV9 in the brain of NHPs ([2]; RNA from brain of NHPs, NGS) [fold] | Fold enrichment over AAV9 in the spinal cord of NHPs [2, 5] [fold] | Fold enrichment over AAV9 in the brain of Mice (BALB/c) (brain [3]; [6]) [fold] | Fold enrichment over AAV9 in the brain of Mice (C57Bl/6) (brain [1]; RNA NGS, brain of C57Bl/6 mice) [fold] | Fold enrichment over AAV9 in the brain of NHPs ([2]; RNA NGS, brain of NHPs) [fold] | Fold enrichment over AAV9 in the spinal cord of NHPs ([2]; RNA NGS, spinal cord of NHPs) [fold] | Fold enrichment over AAV9 in the brain of Mice (BALB/c) (brain [3]; RNA NGS, brain of BALB/c mice) [fold]
21 | GSGQNQQIGESRMT | 0.890 | 1.279 | 0.103 | 0.453 |  |  |  | 
22 | GSGQNQQIISTKIT | 0.951 | 1.275 | 0.000 | 0.710 |  |  |  | 
23 | GSGQNQQINHRSPT | 0.259 | 1.173 | 0.748 | 0.220 |  |  |  | 
24 | GSGQNQQIPHVHQT | 0.576 | 1.409 | 0.768 | 0.218 |  |  |  | 
25 | GSGQNQQKLSSMST | 1.160 | 1.286 | 1.586 | 1.052 |  |  |  | 
26 | GSGQNQQKQNHGNT |  |  |  |  | 1.538 | 1.695 | 5.349 | 1.340
27 | GSGQNQQKSLNGNT | 0.586 | 1.275 | 8.573 | 0.851 |  |  |  | 
28 | GSGQNQQKVSPLLT | 0.755 | 1.314 | 1.602 | 0.806 |  |  |  | 
29 | GSGQNQQLAITLGT |  |  |  |  | 0.877 | 1.011 | 0.000 | 0.143
30 | GSGQNQQLANMVTT |  |  |  |  | 1.253 | 1.014 | 1.739 | 0.987
31 | GSGQNQQLGSRQCT |  |  |  |  | 0.987 | 1.102 | 0.183 | 0.407
32 | GSGQNQQLKENRST |  |  |  |  | 1.149 | 2.765 | 0.062 | 1.118
33 | GSGQNQQLKNSTST | 1.063 | 1.235 | 1.703 | 0.538 |  |  |  | 
34 | GSGQNQQLKSSAQT |  |  |  |  | 0.908 | 1.891 | 1.197 | 0.716
35 | GSGQNQQLPHSNLT |  |  |  |  | 0.442 | 1.521 | 1.838 | 0.283
36 | GSGQNQQLQTLIRT |  |  |  |  | 0.813 | 1.538 | 1.425 | 0.514
37 | GSGQNQQLSAKSST |  |  |  |  | 1.224 | 1.809 | 1.567 | 1.115
38 | GSGQNQQLSGKSVT |  |  |  |  | 1.276 | 1.070 | 1.524 | 0.930
39 | GSGQNQQLSRDAST |  |  |  |  | 1.877 | 1.754 | 3.716 | 0.611
40 | GSGQNQQLVSRVQT | 0.656 | 1.381 | 1.195 | 0.466 |  |  |  | 
